Laboratory results as given in PubChem BioAssay AID328 (DTP/NCI, 2004).
“And” between values parts separate entries of the source, which are not always exact repeats. Equal entries are not always repeated. Toxic doses and inconclusive results are not listed.

System: BDF1 mice, P388 leukemia ip, median survival T/C
Assay: NCI In Vivo Anticancer Drug Screen. Data for tumor model P388 Leukemia (intraperitoneal) in B6D2F1 (BDF1) mice
Conditions: endpoint: median survival time, vehicle: saline, higher = longer survival
Procedure, shortened: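 T/C = treated-group survival ÷ vehicle-control survival; tumour transplanted into mice before dosing.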

`Nc1ncnc2c1ccn2C1OC(CO)C(O)C1O` (stereo not drawn) was tested, and the T/C (dose: 0.19 mg/kg/injection, schedule: Q03DX005 (ip)) was 100 % of control, the T/C (dose: 0.25 mg/kg/injection, schedule: Q02DX005 (ip)) was 108 % of control and the T/C (dose: 0.25 mg/kg/injection, schedule: Q#A X002 (ip)) was 108 % of control. For the same compound, the T/C (dose: 0.31 mg/kg/injection, schedule: Q01DX010 (ip)) was 122 % of control, the T/C (dose: 0.38 mg/kg/injection, schedule: Q03DX005 (ip)) was 104 % of control and the T/C (dose: 0.5 mg/kg/injection, schedule: Q01DX006 (iv)) was 95 % of control. For the same compound, the T/C (dose: 0.5 mg/kg/injection, schedule: Q01DX010 (oral)) was 109 % of control, the T/C (dose: 0.5 mg/kg/injection, schedule: Q02DX004 (im)) was 104 % of control and the T/C (dose: 0.5 mg/kg/injection, schedule: Q02DX005 (ip)) was 112 % of control. The T/C (dose: 0.5 mg/kg/injection, schedule: Q04DX003 (ip)) was 112 % of control, the T/C (dose: 0.5 mg/kg/injection, schedule: Q07DX002 (ip)) was 112 % of control and the T/C (dose: 0.5 mg/kg/injection, schedule: Q#A X002 (ip)) was 112 % of control. The T/C (dose: 0.75 mg/kg/injection, schedule: Q03DX005 (ip)) was 118 % of control, the T/C (dose: 1.0 mg/kg/injection, schedule: Q01DX001 (ip)) was 108 % of control and the T/C (dose: 1.0 mg/kg/injection, schedule: Q01DX006 (iv)) was 95 % of control. The T/C (dose: 1.0 mg/kg/injection, schedule: Q01DX010 (ip)) was 150 % of control, the T/C (dose: 1.0 mg/kg/injection, schedule: Q01DX010 (oral)) was 100 % of control and the T/C (dose: 1.0 mg/kg/injection, schedule: Q01DX010 (sc)) was 91 % of control and 104 % of control. The T/C (dose: 1.0 mg/kg/injection, schedule: Q02DX004 (im)) was 91 % of control, the T/C (dose: 1.0 mg/kg/injection, schedule: Q04DX003 (ip)) was 116 % of control and the T/C (dose: 1.0 mg/kg/injection, schedule: Q07DX002 (ip)) was 116 % of control. The T/C (dose: 1.5 mg/kg/injection, schedule: Q03DX005 (ip)) was 154 % of control, the T/C (dose: 1.5 mg/kg/injection, schedule: Q03DX010 (ip)) was 172 % of control and the T/C (dose: 1.75 mg/kg/injection, schedule: Q07DX002 (ip)) was 150 % of control. The T/C (dose: 2.0 mg/kg/injection, schedule: Q01DX001 (ip)) was 116 % of control, the T/C (dose: 2.0 mg/kg/injection, schedule: Q01DX006 (iv)) was 91 % of control and the T/C (dose: 2.0 mg/kg/injection, schedule: Q01DX010 (im)) was 104 % of control. The T/C (dose: 2.0 mg/kg/injection, schedule: Q01DX010 (ip)) was 108 % of control, the T/C (dose: 2.0 mg/kg/injection, schedule: Q01DX010 (oral)) was 100 % of control and the T/C (dose: 2.0 mg/kg/injection, schedule: Q01DX010 (sc)) was 100 % of control and 113 % of control. The T/C (dose: 2.0 mg/kg/injection, schedule: Q02DX004 (im)) was 100 % of control, the T/C (dose: 2.0 mg/kg/injection, schedule: Q04DX003 (ip)) was 120 % of control and the T/C (dose: 2.0 mg/kg/injection, schedule: Q07DX002 (ip)) was 116 % of control. The T/C (dose: 2.0 mg/kg/injection, schedule: Q#A X002 (ip)) was 95 % of control, the T/C (dose: 3.0 mg/kg/injection, schedule: Q03DX010 (ip)) was 159 % of control and the T/C (dose: 4.0 mg/kg/injection, schedule: Q01DX010 (im)) was 104 % of control. For the same compound, the T/C (dose: 4.0 mg/kg/injection, schedule: Q01DX010 (sc)) was 112 % of control and 113 % of control, the T/C (dose: 4.0 mg/kg/injection, schedule: Q02DX004 (im)) was 100 % of control and the T/C (dose: 4.0 mg/kg/injection, schedule: Q04DX003 (ip)) was 100 % of control. For the same compound, the T/C (dose: 4.0 mg/kg/injection, schedule: Q07DX002 (ip)) was 116 % of control, the T/C (dose: 7.0 mg/kg/injection, schedule: Q01DX001 (ip)) was 150 % of control and the T/C (dose: 8.0 mg/kg/injection, schedule: Q01DX001 (oral)) was 92 % of control. For the same compound, the T/C (dose: 8.0 mg/kg/injection, schedule: Q01DX010 (im)) was 150 % of control, the T/C (dose: 8.0 mg/kg/injection, schedule: Q01DX010 (oral)) was 91 % of control and the T/C (dose: 8.0 mg/kg/injection, schedule: Q01DX010 (sc)) was 118 % of control. For the same compound, the T/C (dose: 16.0 mg/kg/injection, schedule: Q01DX001 (oral)) was 92 % of control, the T/C (dose: 28.0 mg/kg/injection, schedule: Q01DX001 (ip)) was 118 % of control and the T/C (dose: 31.5 mg/kg/injection, schedule: Q#A X020 (ip)) was 104 % of control. The T/C (dose: 62.5 mg/kg/injection, schedule: Q#A X020 (ip)) was 109 % of control, the T/C (dose: 125.0 mg/kg/injection, schedule: Q#A X020 (ip)) was 118 % of control and the T/C (dose: 63.0 micrograms/kg/injection, schedule: Q01DX010 (ip)) was 109 % of control. The T/C (dose: 125.0 micrograms/kg/injection, schedule: Q01DX010 (ip)) was 104 % of control and the T/C (dose: 250.0 micrograms/kg/injection, schedule: Q01DX010 (ip)) was 104 % of control.
